Earlier results, collected in US12440530B2, “Skin solution with solubilized bakuchiol” (Envy Medical, Inc., priority 2013, dated 2025).

Experiments:
[1] = tested on: facial acne vulgaris; details: in vivo

solubility in water | Compound | inflammatory (papules, cysts) and noninflammatory (blackheads) lesions [1] | study subjects with partial or total clearing of acne-related post inflammatory hyperpigmentation (PIH) [1]
very insoluble in water | C=C[C@@](C)(/C=C/c1ccc(O)cc1)CCC=C(C)C [Bakuchiol, bakuchiol] | significant reductions | Forty-five
very insoluble in water | CC(C)=CCC[C@](C)(O)C1CC=C(C)CC1 (stereo partly shown) [bisabolol] | – | –
